The values that follow come from PMC9319939, “Siccanin Is a Dual-Target Inhibitor of Plasmodium falciparum Mitochondrial Complex II and Complex III” (Pharmaceuticals, 2022).

As usually defined, the EC50 is the concentration giving half of the maximal effect. Usually IC50 stands for the concentration at which inhibition is half-maximal.

One test has as its system P. falciparum 3D7-yDHODH. The test is described as follows: Growth inhibition of yeast DHODH-expressing strain. The format is cell-based. Conditions: Plasmodium falciparum, 3D7, read-out: Growth inhibition EC50, 3D7-yDHODH. As to the method:
P. falciparum 3D7-yDHODH was prepared and maintained as described previously. P. falciparum Dd2, and Dd2-derived mutant strains were kindly provided by David A. Fidock, and maintained at Nagasaki University essentially as described in reference, except without supplementation with WR99210.
(§1) Synchronized ring-form parasites (0.3% parasitemia) were prepared in complete medium containing different concentration of various compounds (at a fixed final DMSO concentration of 0.1% (v/v)) and distributed to 96-well plates at 100 μL/well. After 72 h of incubation, parasite growth was monitored by the previously described lactate dehydrogenase (PfLDH)-based assay method; plates were read using a SpectraMax® Paradigm spectrophotometer (Molecular Devices, Inc.; San Jose, CA, USA). EC50 values were calculated using Prism® ver.6.01 (GraphPad; San Diego, CA, USA). Values are presented as the means of three independent experiments.

The test system of a further test is P. falciparum 3D7. As to the kind of experiment: Drug sensitivity assay, 72 h, PfLDH-based. The format is cell-based. To be noted: Plasmodium falciparum, 3D7; Figure 6b; read-out: Growth inhibition EC50, 3D7. Here is the method: The P. falciparum 3D7 strain was cultured, as described previously, in 3% hematocrit type A human red blood cells (RBCs) in RPMI1640 medium (Invitrogen; San Diego, CA, USA) supplemented with 25 mM sodium hydrogen biocarbonate, 10 μg/mL hypoxanthine, 40 μg/mL gentamicin sulfate, and 0.5% (w/v) Albumax II (Invitrogen) (“complete medium”). Cultures were maintained in a MG-70M multi-gas incubator (Taitec) under the conditions of 5% O2, 5% CO2, and 90% N2 at 37 °C. The medium was replaced daily. Parasitemia was measured by thin blood smears stained with Giemsa. In our previous study, we generated mutant P. falciparum strains expressing either disrupted or full-length versions of the flavoprotein (Fp) subunit (encoded by the Pfsdha gene). Both strains were cultured in complete medium at 3% hematocrit supplemented with 5 nM WR99210 (Jacobus Pharmaceuticals; Plainsboro, NJ, USA). The experiments using human RBCs were performed under the guidelines of Research Ethics Committee of the Faculty of Medicine of the University of Tokyo and Institutional Review Board (IRB) of Nagasaki University (Permission nos. 10050 and no. 19, respectively). Human RBCs were obtained from The Japanese Red Cross Society. The synchronization of parasite cultures was performed by treating with 5% (w/v) sorbitol for 10 min [77].
as §1

Test [1] has as its system Plasmodium spp. complex II. The test is described as follows: Plasmodium spp. complex II inhibition (literature values). The class given is biochemical. To be noted: ratio between mammalian and Plasmodium complex II IC50s. From the text:
Table 1 Selectivity of classical complex II inhibitor against Plasmodium spp. and mammal complex II. | column: Selectivity ^a

Another test concerns Mammal complex II. Conditions: read-out: Complex II IC50, Mammal, cited from earlier work.
Test [2] concerns Plasmodium spp. complex II. To be noted: cited from earlier work; for Effect on Plasmodium mitochondrial complex II: classical ubiquinone-site inhibitors, ref [30], [14].

Read-outs that look alike come from different tables or passages of the source.

For the molecule `O=C1C(O)=C([C@H]2CC[C@H](c3ccc(Cl)cc3)CC2)C(=O)c2ccccc21` [Atovaquone], the EC50 in the test on P. falciparum 3D7-yDHODH is greater than 0.1 µM; in the test with P. falciparum 3D7, 0.00056 µM.
For `COc1[nH]c(=O)c(C(=O)[C@@H](C)C[C@H](C)[C@@H](Cl)CCl)c(O)c1OC` [Atpenin A5], in test [1], the Selectivity stood at 0.00087. Besides, the half-inhibitory concentration (IC50) is 0.004 µM in the test on Mammal complex II (ref Miyadera et al. [29]) and 4.6 ± 0.2 µM in test [2] (ref Kawahara et al. [14]). The “Effect on Plasmodium mitochondrial complex II” value (“Effect” for short) in test [2] was “ineffective”.
Consider `CC1=C(C(=O)Nc2ccccc2)SCCO1` [Carboxin], for which the Selectivity in test [1] is 0.28. For the same molecule, the results for the IC50 (with Mammal complex II (ref Miyadera et al. [29]); in test [2] (ref Kawahara et al. [14])) were 1 µM and 3.6 ± 1 µM, respectively. Further, the “Effect” value in test [2] is given as “ineffective”.
Take `O=C(O)CC(=O)O` [Malonate]: the Selectivity in test [1] came out at 0.26. The IC50 was 3.4 µM in the test with Mammal complex II (ref Mogi et al. [34]) and 13.2 ± 0.49 µM in test [2] (ref Suraveratum et al. [30]).
In the case of `O=C(CC(=O)C(F)(F)F)c1cccs1` [TTFA, 2-thenoyltrifluoroacetone], the Selectivity in test [1] is less than 0.11. For the same molecule, the figures for the IC50 (in the test with Mammal complex II (ref Miyadera et al. [29]); in test [2] (ref Suraveratum et al. [30])) were 5.4 µM and greater than 50 µM, respectively. Also, the “Effect” value in test [2] is “ineffective”.
